Assay results from patent US7034110B2, “Method of identifying chemical compounds having selected properties for a particular application” (ArQule, Inc., priority 1994, dated 2006).
Read-outs that look alike come from different tables or passages of the source.

What was measured:
[1] = target: chymotrypsin (Bos taurus, UniProt P00766); assay: competitive inhibition of chymotrypsin, standard assay using a BTEE substrate; type: biochemical
Experimental: The set of molecules where X=CH2 was tested as competitive inhibitiors of the enzyme chymotrypsin in a standard assay using a BTEE substrate.

[2] = boiling in 6 N NaOH for 24 hrs; cited from earlier work

Structure (SMILES) | Ki [1] | other results
CC(=O)[N-][N+]1(CC(C)O)CCCCC1 (centres unmarked) [R1=Me, R2=Me] | – | Ki ([1]; competitive inhibition, BTEE substrate, set of molecules where X=CH2): not be an inhibitor
CC(O)C[N+]1([N-]C(=O)c2ccccc2)CCCCC1 (centres unmarked) [R1=Me, R2=Ph] | 130 µM | –
CC(=O)[N-][N+]1(CC(O)c2ccccc2)CCCCC1 (centres unmarked) [R1=Ph, R2=Me] | 200 µM | –
O=C([N-][N+]1(CC(O)c2ccccc2)CCCCC1)c1ccccc1 (centres unmarked) [R1=Ph, R2=Ph] | 500 µM | –
CN(C)C.NC(=O)c1ccccc1 [trimethyl amine benzamide] | – | hydrolytic stability [2]: unchanged
